Assay results reported in PubChem BioAssay (NCI).
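96-well plates; 48 h exposure; 5 concentrations. Endpoints by linear interpolation between flanking doses. Not reached: highest tested concentration assigned. GI50 marks 50% less growth. At the TGI there is no net growth.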

How the values were obtained:
Experiment in all cases: NCI anticancer screen, dose series, 48 h
[1] = system: 786-0 renal
[2] = system: A498 renal
[3] = system: A549 NSCLC
[4] = system: ACHN renal
[5] = system: BT-549 breast
[6] = system: CAKI-1 renal
[7] = system: CCRF-CEM leukemia
[8] = system: COLO 205 colon
[9] = system: DU-145 prostate
[10] = system: EKVX NSCLC
[11] = system: HCC-2998 colon
[12] = system: HCT-116 colon
[13] = system: HCT-15 colon
[14] = system: HL-60(TB) leukemia
[15] = system: HOP-62 NSCLC
[16] = system: HOP-92 NSCLC
[17] = system: HS 578T breast
[18] = system: HT29 colon
[19] = system: IGROV1 ovarian
[20] = system: K-562 leukemia
[21] = system: KM12 colon
[22] = system: LOX IMVI melanoma
[23] = system: M14 melanoma
[24] = system: MALME-3M melanoma
[25] = system: MCF7 breast
[26] = system: MDA-MB-231 breast
[27] = system: MDA-MB-435
[28] = system: MOLT-4 leukemia
[29] = system: NCI-H226 lung
[30] = system: NCI-H23 lung
[31] = system: NCI-H460 lung
[32] = system: NCI-H522 lung
[33] = system: NCI/ADR-RES ovarian
[34] = system: OVCAR-3 ovarian
[35] = system: OVCAR-4 ovarian
[36] = system: OVCAR-5 ovarian
[37] = system: OVCAR-8 ovarian
[38] = system: PC-3 prostate
[39] = system: RPMI-8226 leukemia
[40] = system: RXF 393 renal
[41] = system: SF-268 CNS
[42] = system: SF-295 CNS
[43] = system: SF-539 CNS
[44] = system: SK-MEL-2 melanoma
[45] = system: SK-MEL-28 melanoma
[46] = system: SK-MEL-5 melanoma
[47] = system: SK-OV-3 ovarian
[48] = system: SN12C renal
[49] = system: SNB-19 CNS
[50] = system: SNB-75 CNS
[51] = system: SR leukemia
[52] = system: SW-620 colon
[53] = system: T-47D breast
[54] = system: TK-10 renal
[55] = system: U251 CNS
[56] = system: UACC-257 melanoma
[57] = system: UACC-62 melanoma
[58] = system: UO-31 renal

With `O=C(N/N=C/c1ccc(Cl)s1)c1[nH]c2ccc(Br)cc2c1-c1ccccc1` the GI50 [1] was 418 nM, the TGI [1] was > 41500 nM and the GI50 [2] was 28300 nM. For the same molecule, the TGI [2] was > 100000 nM, the GI50 [3] was 376 nM and the TGI [3] was > 48200 nM. For the same molecule, the GI50 [4] was 361 nM, the TGI [4] was > 61500 nM and the GI50 [5] was 274 nM. For the same molecule, the TGI [5] was 765 nM, the GI50 [6] was 450 nM and the TGI [6] was 47000 nM. For the same molecule, the GI50 [7] was 354 nM, the TGI [7] was > 86400 nM and the GI50 [8] was 488 nM. The TGI [8] was 1680 nM, the GI50 [9] was 346 nM and the TGI [9] was 34100 nM. For the same molecule, the GI50 [10] was 1180 nM, the TGI [10] was > 100000 nM and the GI50 [11] was 453 nM. For the same molecule, the TGI [11] was 46000 nM, the GI50 [12] was 231 nM and the TGI [12] was 7060 nM. For the same molecule, the GI50 [13] was 277 nM, the GI50 [14] was 226 nM and the TGI [14] was 612 nM. For the same molecule, the GI50 [15] was 766 nM, the TGI [15] was 41600 nM and the GI50 [16] was 1370 nM. It also gave a TGI [16] of 68300 nM, a GI50 [17] of 496 nM and a TGI [17] of 34900 nM. For the same molecule, the GI50 [18] was 319 nM, the TGI [18] was 10700 nM and the GI50 [19] was 386 nM. For the same molecule, the TGI [19] was 21400 nM, the GI50 [20] was 235 nM and the TGI [20] was > 73800 nM. It also gave a GI50 [21] of 402 nM, a TGI [21] of 27900 nM and a GI50 [22] of 308 nM. For the same molecule, the TGI [22] was 1350 nM, the GI50 [23] was 318 nM and the TGI [23] was > 100000 nM. For the same molecule, the GI50 [24] was 489 nM, the TGI [24] was > 74400 nM and the GI50 [25] was 266 nM. The TGI [25] was 4210 nM, the GI50 [26] was 290 nM and the TGI [26] was 3090 nM. It also gave a GI50 [27] of 196 nM, a TGI [27] of 384 nM and a GI50 [28] of 330 nM. For the same molecule, the TGI [28] was > 21400 nM, the GI50 [29] was 313 nM and the TGI [29] was 6930 nM. It also gave a GI50 [30] of 426 nM, a TGI [30] of 38800 nM and a GI50 [31] of 335 nM. For the same molecule, the TGI [31] was 3270 nM, the GI50 [32] was 71.9 nM and the TGI [32] was 242 nM. For the same molecule, the GI50 [33] was 144 nM, the GI50 [34] was 321 nM and the TGI [34] was 4180 nM. For the same molecule, the GI50 [35] was 594 nM, the TGI [35] was 69800 nM and the GI50 [36] was 424 nM. The TGI [36] was > 100000 nM, the GI50 [37] was 214 nM and the TGI [37] was 714 nM. The GI50 [38] was 450 nM, the TGI [38] was > 100000 nM and the GI50 [39] was 356 nM. The TGI [39] was > 52500 nM, the GI50 [40] was 547 nM and the TGI [40] was 5010 nM. For the same molecule, the GI50 [41] was 574 nM, the TGI [41] was > 100000 nM and the GI50 [42] was 275 nM. It also gave a TGI [42] of 3220 nM, a GI50 [43] of 122 nM and a TGI [43] of 429 nM. It also gave a GI50 [44] of 325 nM, a TGI [44] of 21000 nM and a GI50 [45] of 627 nM. For the same molecule, the TGI [45] was > 100000 nM, the GI50 [46] was 284 nM and the TGI [46] was 878 nM. For the same molecule, the GI50 [47] was 409 nM, the TGI [47] was 91200 nM and the GI50 [48] was 350 nM. For the same molecule, the TGI [48] was 32900 nM, the GI50 [49] was 331 nM and the TGI [49] was > 90200 nM. It also gave a GI50 [50] of 259 nM, a TGI [50] of 3450 nM and a GI50 [51] of 290 nM. For the same molecule, the TGI [51] was 27600 nM, the GI50 [52] was 375 nM and the TGI [52] was > 100000 nM. The GI50 [53] was 2310 nM, the TGI [53] was > 86800 nM and the GI50 [54] was 4190 nM. The TGI [54] was > 100000 nM, the GI50 [55] was 322 nM and the TGI [55] was 18200 nM. The GI50 [56] was 508 nM, the TGI [56] was > 100000 nM and the GI50 [57] was 334 nM. For the same molecule, the TGI [57] was 25900 nM, the GI50 [58] was 520 nM and the TGI [58] was > 100000 nM.
